Like-named read-outs stand apart in the source and are kept apart here.
How the values were obtained:
Assay in all cases: Crystal violet monolayer growth assay
Type in all cases: cell-based, human
[1] = system: MCF-7
Protocol: (§1) Cells were seeded at 1500 (MDA-MB-231, MDA-MB-436 and BJ fibroblasts) or 4000 cells per well of 96 well plates. […] At the indicated time points, individual plates were fixed and stained with crystal violet-methanol solution (50 μl per well) for 15 minutes, washed several times with distilled water and plates were air dried overnight. Sodium citrate solution (0.1M) was used to solubilize bound crystal violet and optical densities were measured at 560 nm (Glomax®-Multi Detection plate reader, Promega).
(§2) Cells (MDA-MB-231, MDA-MB-436 and BJ fibroblasts) were seeded at 1500 or 4000 cells per well of 96 well plates. […] At the indicated time points, individual plates were fixed and stained with crystal violet solution (0.5% crystal violet and 25% methanol) for 15 min, washed several times in distilled water and air dried overnight. Sodium citrate solution (0.1M) was used to solubilize bound crystal violet and optimal densities were measured at 560 nm (Glomax®—Multi Detection plate reader, Promega).
(§3) The effect of GR-24 (FIG. 3) on long-term cancer cell line growth was assessed by crystal violet assay. MCF-7 (estrogen receptor positive (ER+), tumorigenic, nonmetastatic), (A) MDA-MB-231, MDA-MB-436 (ER negative (−), metastatic) and BJ fibroblasts (normal, non-neoplastic line) were treated with GR-24 at a dose range of 0.5 to 10 ppm (1.65-33 μM). Growth was monitored for up to 10 days. At the indicated time points, plates were stained with crystal violet. Data are reported as the Percent Absorbance (560 nm) of vehicle control. Average±standard deviations (SD). Student's t-test (2-tailed, paired) was used to evaluate GR-24 treated groups with vehicle (control) groups at final time point and regarded as being significant if p<0.05 (*), very significant if p<0.01 (**), extremely significant if p<0.001 (***). (B) Is a graph showing the light absorbance reading (560 nm) after 7 days exposure to the indicated doses of GR-24. Data expressed as a percentage of vehicle controls. Average of triplicate samples+SD. Horizontal line (---) marks 50% reduction in Absorbance (560 nm) relative to vehicle controls.

[2] = system: MDA-MB-436; settings: for IC50: after 7 days, read-out: IC50 of long-term proliferation
Protocol: as §1, §2, §3

[3] = system: MDA-MB-231; settings: for IC50: after 7 days, read-out: IC50 of long-term proliferation
Protocol: as §1, §2, §3

[4] = system: BJ fibroblasts; settings: up to 10 ppm, up to 10 days
Protocol: as §1, §2, §3

Compound: CC1=C[C@H](O/C=C2/C(=O)O[C@@H]3c4ccccc4C[C@H]23)OC1=O (relative stereo) [GR-24, (3aR*,8bS*,E)-3-(((R*)-4-methyl-5-oxo-2,5-dihydrofuran-2-yloxy)methylene)-3,3a,4,8b-tetrahydro-2H-indeno[1,2-b]furan-2-one]
- IC50 ([1]; Homo sapiens, MCF7, 168 h, after 7 days, read-out: IC50 of long-term proliferation): 18.8 µM
- IC50 of long-term proliferation ([1]; after 7 days): 5.7 ppm
- Concentrations resulting in a significant reduction in growth compared to vehicle ([1]; up to 10 days): 2.5-5 ppm
- IC50 ([2]; Homo sapiens, MDA-MB-436, 168 h): 18.8 µM
- IC50 [2]: 17.2 µM
- Concentrations resulting in a significant reduction in growth compared to vehicle ([2]; up to 10 days): 2.5-5 ppm
- IC50 ([3]; Homo sapiens, MDA-MB-231, 168 h): 22.1 µM
- IC50 [3]: 18.8 µM
- Concentrations resulting in a significant reduction in growth compared to vehicle ([3]; up to 10 days): 2.5-5 ppm
- Growth compared to vehicle [4]: no significant reduction in growth

From patent publication US10208007B2, “Use of strigolactones and strigolactone analogs for treating proliferative conditions” (The State of Israel, Ministry of Agriculture & Rural …, priority 2011, dated 2019)
